Earlier results as cited in US8822429B2, “Citicoline for the treatment of glaucoma and ocular hypertension” (Omikron Italia S.r.l., priority 2010, dated 2014).

Settings: taken orally

excreted in the feces: less than 1%
time of plasma peak after ingestion (first peak): 1 h
time of second, larger plasma peak (larger peak following the first): 24 h
Structure (SMILES): C[N+](C)(C)CCOP(=O)(O)OP(=O)([O-])OC[C@H]1O[C@@H](n2ccc(N)nc2=O)[C@H](O)[C@@H]1O [Citicoline, cytidine-5′-diphosphocholine]
